The test system of assay [1] is MIA PaCa-2 cells. Description: Gemcitabine Combination Cell Assay (Cell Titer Glo). It is filed as cell-based. The conditions noted are these: for IC50: Homo sapiens; for 10xLS: approximate concentration of Chk1 inhibitor that results in a 10-fold reduction in the IC50 of gemcitabine alone; for 2xLS: approximate concentration of Chk1 inhibitor that results in a two-fold reduction in the IC50 of gemcitabine alone. The essentials:
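MIA PaCa-2 cells were treated 72 h with half-log dilutions of Chk1 inhibitor (top 3000 nM) and gemcitabine (top 100 nM), alone and in full matrix; viability by CellTiter-Glo luminescence. IC50s from four-parameter fit; Chk1 inhibitor concentrations giving two- and ten-fold lowering of gemcitabine IC50 were estimated.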

Assay [2] concerns the target Chk-1 kinase (Homo sapiens (Human), UniProt O14757). Description: Chk-1 Kinase Inhibiting Activity (33P-ATP filter assay, CHKtide substrate). It is filed as biochemical. The essentials: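 Full-length N-terminal GST-tagged human Chk-1 from insect cells, 0.5 nM final, with 20 μM peptide substrate and 33P-ATP in HEPES pH 7.5 buffer with 1% DMSO. Reaction ran 120 minutes at room temperature; incorporated radioactivity captured on P81 filters and counted for IC50.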

[3] abbreviates: Chk1 inhibitor alone, MIA PaCa-2 cells, 72 h, read-out: Chk1 IC50.
Where [4] appears, read: against Chk-1 kinase, read-out: IC50.
The mark [5] stands for this setting: MIA PaCa-2, 72 h, read-out: Chk1 IC50 (nM).

Structures can show the parent of a compound that is named as a salt. Where two headings read alike, the source gives them in different places. A value given as a limit tells only on which side of the number the result lay.

Sequence of Chk-1 kinase (O14757 whole entry): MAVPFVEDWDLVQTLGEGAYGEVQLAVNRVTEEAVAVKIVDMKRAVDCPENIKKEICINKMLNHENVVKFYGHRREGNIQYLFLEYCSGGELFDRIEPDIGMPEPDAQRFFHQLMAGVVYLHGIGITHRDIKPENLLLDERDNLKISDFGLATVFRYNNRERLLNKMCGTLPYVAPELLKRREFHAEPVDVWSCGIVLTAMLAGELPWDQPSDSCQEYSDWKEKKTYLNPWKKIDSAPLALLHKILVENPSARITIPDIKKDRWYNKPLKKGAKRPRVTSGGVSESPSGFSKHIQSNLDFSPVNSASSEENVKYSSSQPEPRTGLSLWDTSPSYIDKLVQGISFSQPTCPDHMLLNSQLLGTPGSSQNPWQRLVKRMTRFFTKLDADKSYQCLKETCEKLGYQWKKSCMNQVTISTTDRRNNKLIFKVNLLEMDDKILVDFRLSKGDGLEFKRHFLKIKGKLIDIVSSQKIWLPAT

For the molecule `COc1cc(CN[C@@H]2CCOC2)ccc1-c1cc(Nc2cnc(C#N)cn2)n[nH]1` [Example 131, 5-[[5-[2-methoxy-4-[[[(3R)-tetrahydrofuran-3-yl]amino]methyl]phenyl]-1H-pyrazol-3-yl]amino]pyrazine-2-carbonitrile], in assay [1] (setting [3]), the IC50 came to 592 nM. Moreover, in assay [1] (MIA PaCa-2 cells, 72 h), the “10xLS” value is 100 nM and the “2xLS” value amounted to 3 nM. Besides, in assay [2] (setting [4]), the IC50 stood at 0.1 nM.
Regarding `COc1cc(CN[C@H]2CCOC2)ccc1-c1cc(Nc2cnc(C#N)cn2)n[nH]1` [Example 132, 5-[[5-[2-methoxy-4-[[[(3S)-tetrahydrofuran-3-yl]amino]methyl]phenyl]-1H-pyrazol-3-yl]amino]pyrazine-2-carbonitrile], the IC50 in assay [1] (setting [3]) worked out at 411 nM. Moreover, in assay [1] (MIA PaCa-2 cells, 72 h), the “10xLS” value is under 300 nM and the “2xLS” value amounted to 3 nM. Moreover, in assay [2] (setting [4]), the IC50 amounted to 0.11 nM.
The corresponding values for `COc1cc(N2CCN(C(C)C)[C@H](C)C2)ccc1-c1cc(Nc2cnc(C#N)cn2)n[nH]1` [Example 133, 5-[[5-[4-[(3R)-4-isopropyl-3-methyl-piperazin-1-yl]-2-methoxy-phenyl]-1H-pyrazol-3-yl]amino]pyrazine-2-carbonitrile] are 139 nM, 30 nM, under 3 nM and 0.12 nM.
For `CCN1CCC(Oc2ccc(-c3cc(Nc4cnc(C#N)cn4)n[nH]3)c(OC)c2)CC1` [Example 134, 5-[[5-[4-[(1-ethyl-4-piperidyl)oxy]-2-methoxy-phenyl]-1H-pyrazol-3-yl]amino]pyrazine-2-carbonitrile], in that order: 352 nM, 100 nM, 3 nM and 0.11 nM.
With `COc1cc(OC2CCN(C(C)C)CC2)ccc1-c1cc(Nc2cnc(C#N)cn2)n[nH]1` [Example 135, 5-[[5-[4-[(1-isopropyl-4-piperidyl)oxy]-2-methoxy-phenyl]-1H-pyrazol-3-yl]amino]pyrazine-2-carbonitrile], the IC50 in assay [1] (setting [3]) came out at 334 nM. In addition, in assay [1] (MIA PaCa-2 cells, 72 h), the “10xLS” value is on record as 100 nM and the “2xLS” value is recorded as under 3 nM. The IC50 in assay [2] (setting [4]) was 0.054 nM.
The corresponding values for `CCN1CCN(c2cc(F)c(-c3cc(Nc4cnc(C#N)cn4)n[nH]3)c(OC)c2)CC1` [Example 136, 5-[[5-[4-(4-ethylpiperazin-1-yl)-2-fluoro-6-methoxy-phenyl]-1H-pyrazol-3-yl]amino]pyrazine-2-carbonitrile] are 228 nM, 100 nM, 3 nM and 0.053 nM.
For `COc1cc(N2CCN(C(C)C)CC2)cc(F)c1-c1cc(Nc2cnc(C#N)cn2)n[nH]1` [Example 137, 5-[[5-[4-(4-isopropylpiperazin-1-yl)-2-fluoro-6-methoxy-phenyl]-1H-pyrazol-3-yl]amino]pyrazine-2-carbonitrile], in that order: 256 nM, under 100 nM, under 3 nM and 0.048 nM.
Regarding `CCN1CC[C@H](OCc2ccc(-c3cc(Nc4cnc(C#N)cn4)n[nH]3)c(OC)c2)C1` [Example 138, 5-[[5-[4-[[(3S)-1-ethylpyrrolidin-3-yl]oxymethyl]-2-methoxy-phenyl]-1H-pyrazol-3-yl]amino]pyrazine-2-carbonitrile], the IC50 came to 836 nM in assay [1] (setting [3]) and 0.041 nM in assay [2] (setting [4]). Also, the “10xLS” value in assay [1] (MIA PaCa-2 cells, 72 h) is 300 nM. In assay [1] (MIA PaCa-2 cells, 72 h), the “2xLS” value was under 10 nM.
For `COc1cc(CO[C@H]2CCN(C(C)C)C2)ccc1-c1cc(Nc2cnc(C#N)cn2)n[nH]1` [Example 139, 5-[[5-[4-[[(3S)-1-isopropylpyrrolidin-3-yl]oxymethyl]-2-methoxy-phenyl]-1H-pyrazol-3-yl]amino]pyrazine-2-carbonitrile], in that order: 743 nM, 0.027 nM, 300 nM and 10 nM.
For `CCN1CC[C@@H](OCc2ccc(-c3cc(Nc4cnc(C#N)cn4)n[nH]3)c(OC)c2)C1` [Example 140, 5-[[5-[4-[[(3R)-1-ethylpyrrolidin-3-yl]oxymethyl]-2-methoxy-phenyl]-1H-pyrazol-3-yl]amino]pyrazine-2-carbonitrile hydrochloride], in assay [1] (setting [5]), the 50% inhibitory concentration (IC50) is 618 nM. For the same molecule, in assay [1] (MIA PaCa-2 cells, 72 h), the “10xLS” value is given as under 300 nM and the “2xLS” value is under 10 nM. For the same molecule, in assay [2] (setting [4]), the IC50 was 0.021 nM.
Regarding `COc1cc(CO[C@@H]2CCN(C(C)C)C2)ccc1-c1cc(Nc2cnc(C#N)cn2)n[nH]1` [Example 141, 5-[[5-[4-[[(3R)-1-isopropylpyrrolidin-3-yl]oxymethyl]-2-methoxy-phenyl]-1H-pyrazol-3-yl]amino]pyrazine-2-carbonitrile], the IC50 in assay [1] (setting [3]) was determined as 970 nM. Besides, in assay [1] (MIA PaCa-2 cells, 72 h), the “10xLS” value was under 300 nM and the “2xLS” value is listed as under 10 nM. The IC50 in assay [2] (setting [4]) was determined as 0.019 nM.
The corresponding values for `COc1cc(N2CCN(CC(C)C)CC2)ccc1-c1cc(Nc2cnc(C#N)cn2)n[nH]1` [Example 142, 5-[[5-[4-(4-isobutylpiperazin-1-yl)-2-methoxy-phenyl]-1H-pyrazol-3-yl]amino]pyrazine-2-carbonitrile] are 306 nM, 100 nM, 3 nM and 0.082 nM.
Regarding `CCN1CCC(Cc2ccc(-c3cc(Nc4cnc(C#N)cn4)n[nH]3)c(OC)c2)CC1` [Example 143, 5-[[5-[4-[(1-Ethyl-4-piperidyl)methyl]-2-methoxy-phenyl]-1H-pyrazol-3-yl]amino]pyrazine-2-carbonitrile hydrochloride], the IC50 in assay [1] (setting [5]) was 820 nM. Moreover, in assay [1] (MIA PaCa-2 cells, 72 h), the “10xLS” value is under 300 nM and the “2xLS” value is given as under 10 nM. Besides, in assay [2] (setting [4]), the IC50 was found to be 0.021 nM.
With `COc1cc(CC2CCN(C(C)C)CC2)ccc1-c1cc(Nc2cnc(C#N)cn2)n[nH]1` [Example 144, 5-[[5-[4-[(1-isopropyl-4-piperidyl)methyl]-2-methoxy-phenyl]-1H-pyrazol-3-yl]amino]pyrazine-2-carbonitrile], the figures for the IC50 in assay [1] (setting [3]) and in assay [2] (setting [4]) were 829 nM and 0.026 nM, respectively. Besides, the “10xLS” value in assay [1] (MIA PaCa-2 cells, 72 h) is under 300 nM. Moreover, the “2xLS” value in assay [1] (MIA PaCa-2 cells, 72 h) is given as 10 nM.
The corresponding values for `CCN1CCC(CN(C)c2ccc(-c3cc(Nc4cnc(C#N)cn4)n[nH]3)c(OC)c2)CC1` [Example 145, 5-[[5-[4-[(1-ethyl-4-piperidyl)methyl-methyl-amino]-2-methoxy-phenyl]-1H-pyrazol-3-yl]amino]pyrazine-2-carbonitrile] are 267 nM, 0.0084 nM, under 100 nM and under 3 nM.
`COc1cc(CNCC(C)C)ccc1-c1cc(Nc2cnc(C#N)cn2)n[nH]1` [Example 146, 5-[[5-[4-[(isobutylamino)methyl]-2-methoxy-phenyl]-1H-pyrazol-3-yl]amino]pyrazine-2-carbonitrile]: the IC50 in assay [1] (setting [3]) was 433 nM; in assay [2] (setting [4]), 0.012 nM. Besides, the “10xLS” value in assay [1] (MIA PaCa-2 cells, 72 h) is 100 nM. The “2xLS” value in assay [1] (MIA PaCa-2 cells, 72 h) is reported as 3 nM.
The corresponding values for `COc1cc([C@@H]2CN(C(C)C)CCO2)ccc1-c1cc(Nc2cnc(C#N)cn2)n[nH]1` [Example 147, 5-[[5-[4-[(2R)-4-isopropylmorpholin-2-yl]-2-methoxy-phenyl]-1H-pyrazol-3-yl]amino]pyrazine-2-carbonitrile] are 1200 nM, 0.16 nM, 300 nM and 10 nM.
For `COc1cc(N(C)CC2CCN(C(C)C)CC2)ccc1-c1cc(Nc2cnc(C#N)cn2)n[nH]1` [Example 148, 5-[[5-[4-[(1-isopropyl-4-piperidyl)methyl-methyl-amino]-2-methoxy-phenyl]-1H-pyrazol-3-yl]amino]pyrazine-2-carbonitrile], in that order: 254 nM, 0.031 nM, under 100 nM and under 3 nM.
In the case of `N#Cc1cnc(Nc2cc(-c3ccc(N4CCNCC4)cc3OC(F)(F)F)[nH]n2)cn1` [Example 153], the values for the IC50 in assay [1] (setting [3]) and in assay [2] were 1200 nM and 3.8 nM, respectively. Moreover, the “10xLS” value in assay [1] (MIA PaCa-2 cells, 72 h) came out at 1000 nM. Besides, the “2xLS” value in assay [1] (MIA PaCa-2 cells, 72 h) came out at 100 nM.

The values are drawn from patent US10010547B2 (CASCADIAN THERAPEUTICS, INC., priority 2014, dated 2018).
